From ChEMBL document CHEMBL4715742, “Design, synthesis and cytotoxic activities of novel 2,5-diketopiperazine derivatives” (Eur J Med Chem, 2016) come the findings set out here.

Usually IC50 stands for the concentration that gives 50% inhibition.

Assay [1] concerns U-937. The experiment in a line: Cytotoxicity against human U-937 cells assessed as reduction in cell viability measured after 72 hrs by CCK8 assay. It counts as functional, cell-based.
In a further assay the test system is MCF7. The experiment in a line: Cytotoxicity against human MCF7 cells assessed as reduction in cell viability measured after 72 hrs by CCK8 assay. It counts as functional, cell-based. (In general: Formazan colour is commonly taken as a measure of viable cells.)
The subject of a further assay is HT-29. The assay can be described thus: Cytotoxicity against human HT-29 cells assessed as reduction in cell viability measured after 72 hrs by CCK8 assay. It counts as functional, cell-based.
The test system of a further assay is K562. The experiment in a line: Cytotoxicity against human K562 cells assessed as reduction in cell viability measured after 72 hrs by CCK8 assay. It counts as functional, cell-based.
Another assay has as its system HeLa. The experiment in a line: Cytotoxicity against human HeLa cells assessed as reduction in cell viability measured after 72 hrs by CCK8 assay. It counts as functional, cell-based.
The test system of another assay is HL-60. The experiment in a line: Cytotoxicity against human HL-60 cells assessed as reduction in cell viability measured after 72 hrs by CCK8 assay. It counts as functional, cell-based.
Another assay deals with DU-145. The assay can be described thus: Cytotoxicity against human DU-145 cells assessed as reduction in cell viability measured after 72 hrs by CCK8 assay. It counts as functional, cell-based.
A further assay has as its system A549. The assay can be described thus: Cytotoxicity against human A549 cells assessed as reduction in cell viability measured after 72 hrs by CCK8 assay. It counts as functional, cell-based.
Assay [2] relates to U-937. The experiment in a line: Induction of apoptosis in human U-937 cells assessed as viable cells at 0.015 uM measured after 24 hrs by annexinV/FITC-propidium iodide staining based flow cytometry (reference value: 95 to 95.1 %). The settings on record: read-out: Activity. It counts as functional. Background: A flow cytometer gives signals particle by particle.
In assay [3] the test system is U-937. The experiment in a line: Induction of apoptosis in human U-937 cells assessed as viable cells at 0.015 uM measured after 48 hrs by annexinV/FITC-propidium iodide staining based flow cytometry (reference value: 93.7 to 94.2 %). It counts as functional. The settings on record: read-out: Activity.
The subject of assay [4] is U-937. The experiment in a line: Induction of apoptosis in human U-937 cells assessed as late apoptotic cells at 0.015 uM measured after 48 hrs by annexinV/FITC-propidium iodide staining based flow cytometry (reference value: 3.27 to 3.41 %). It counts as functional.
Assay [5] has as its system U-937. The assay can be described thus: Induction of apoptosis in human U-937 cells assessed as necrotic cells at 0.015 uM measured after 24 hrs by annexinV/FITC-propidium iodide staining based flow cytometry (reference value: 1.12 to 1.48 %). It counts as functional.
Assay [6] deals with U-937. The experiment in a line: Induction of apoptosis in human U-937 cells assessed as early apoptotic cells at 0.015 uM measured after 48 hrs by annexinV/FITC-propidium iodide staining based flow cytometry (reference value: 1.78 to 1.88 %). It counts as functional.
In assay [7] the test system is U-937. The assay can be described thus: Induction of apoptosis in human U-937 cells assessed as apoptotic ratio at 0.015 uM measured after 24 hrs by annexinV/FITC-propidium iodide staining based flow cytometry (reference value: 3.7 +/- 0.3 %). It counts as functional.
Assay [8] deals with U-937. The experiment in a line: Induction of apoptosis in human U-937 cells assessed as early apoptotic cells at 0.015 uM measured after 24 hrs by annexinV/FITC-propidium iodide staining based flow cytometry (reference value: 1.28 to 1.68 %). It counts as functional.
The subject of assay [9] is U-937. The experiment in a line: Induction of apoptosis in human U-937 cells assessed as apoptotic ratio at 0.015 uM measured after 48 hrs by annexinV/FITC-propidium iodide staining based flow cytometry (reference value: 5.2 +/- 0.2 %). It counts as functional.
Assay [10] concerns U-937. The experiment in a line: Induction of apoptosis in human U-937 cells assessed as late apoptotic cells at 0.015 uM measured after 24 hrs by annexinV/FITC-propidium iodide staining based flow cytometry (reference value: 2.18 to 2.22 %). It counts as functional.
Assay [11] concerns U-937. The assay can be described thus: Induction of apoptosis in human U-937 cells assessed as necrotic cells at 0.015 uM measured after 48 hrs by annexinV/FITC-propidium iodide staining based flow cytometry (reference value: 0.794 to 0.955 %). It counts as functional.

Regarding `C=CCn1c(=O)/c(=C/CCCCCCCC)[nH]c(=O)/c1=C/c1ccccc1OC`, the IC50 entry in the assay on U-937 [1] (u-937), in the assay on MCF7 (mcf7), in the assay on HT-29 (ht-29), in the assay on K562 (k562), with HeLa (hela) and in the assay with HL-60 (hl-60) was “Not Active” throughout. In addition, the IC50 result in the assay on DU-145 (du-145) and in the assay with A549 (a549) was “Not Active” throughout.
As to `C=CCn1c(=O)/c(=C/CCCCCCCCCC)[nH]c(=O)/c1=C/c1cccc(OC)c1`, the IC50 entry in the assay on U-937 [1] (u-937), in the assay with MCF7 (mcf7), in the assay on HT-29 (ht-29), in the assay on K562 (k562), with HeLa (hela) and in the assay with HL-60 (hl-60) was “Not Active” each time. Also, the half-inhibitory concentration (IC50) entry with DU-145 (du-145) and in the assay with A549 (a549) was “Not Active” each time.
Regarding `C=CCn1c(=O)/c(=C/CC)[nH]c(=O)/c1=C/c1ccccc1OC`, the IC50 result in the assay with U-937 [1] (u-937), in the assay with MCF7 (mcf7), in the assay with HT-29 (ht-29), with K562 (k562), in the assay on HeLa (hela) and with HL-60 (hl-60) was “Not Active” each time. In addition, the 50% inhibitory concentration (IC50) entry in the assay with DU-145 (du-145) and with A549 (a549) was “Not Active” in each case.
Take `CC(C)(C)c1[nH]cnc1/C=c1\[nH]c(=O)/c(=C/c2ccccc2)[nH]c1=O` [PLINABULIN]: the viability at 0.015 µM was 66.9% with U-937 [2] and 58.3% in the assay with U-937 [3]. Moreover, the Activity with U-937 [4] came out at 31.1%; with U-937 [5] it was 1.13%; in the assay on U-937 [6] it was 6.44%; in the assay on U-937 [7], 31.8%; in the assay on U-937 [8], 11.7%; in the assay with U-937 [9], 38.6%. Also, the Activity was 19.3% in the assay on U-937 [10] and 1.99% with U-937 [11]. For the same compound, the IC50 in the assay on U-937 [1] (Homo sapiens, U-937, 72 h, read-out: IC50) was 6.8 nM; with MCF7 (Homo sapiens, MCF7, 72 h, read-out: IC50), 12.6 nM; in the assay on HT-29 (Homo sapiens, HT-29, 72 h, read-out: IC50) it was 13 nM; in the assay with K562 (Homo sapiens, K562, 72 h, read-out: IC50), 6.3 nM; with HeLa (Homo sapiens, HeLa, 72 h, read-out: IC50), 8.4 nM; with HL-60 (Homo sapiens, HL-60, 72 h, read-out: IC50) it was 14.8 nM. In addition, the IC50 in the assay on DU-145 (Homo sapiens, DU-145, 72 h, read-out: IC50) turned out to be 14 nM; in the assay on A549 (Homo sapiens, A549, 72 h, read-out: IC50), 5.5 nM.
